Several values for one entry are separate records, joined by “and”; a condition that tells them apart may be missing. Equal values may be shown once. Toxic doses and inconclusive results are not listed. Square brackets hold non-standard residues; d marks the D form. Peptide text beside a SMILES is read from it. Nle = CCCC[CH](N)C(=O)O
Test system: P388 leukemia ip, CD2F1 mice, survival T/C
Test: NCI In Vivo Anticancer Drug Screen. Data for tumor model P388 Leukemia (intraperitoneal) in CD2F1 (CDF1) mice
Details: endpoint: median survival time, higher = longer survival
Procedure, shortened: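 Mice carrying the transplanted tumor received test compound or vehicle. Survival was recorded in each group, and the value is the treated-group measurement divided by that of the vehicle-treated control group.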

[1] = dose: 50.0 mg/kg/injection, schedule: Q01DX005 (ip), vehicle: saline with Tween-80
[2] = dose: 100.0 mg/kg/injection, schedule: Q01DX005 (ip), vehicle: saline with Tween-80
[3] = dose: 200.0 mg/kg/injection, schedule: Q01DX005 (ip), vehicle: saline with Tween-80
[4] = dose: 60.0 mg/kg/injection, schedule: Q01DX005 (ip), vehicle: saline with Tween-80
[5] = dose: 120.0 mg/kg/injection, schedule: Q01DX005 (ip), vehicle: saline with Tween-80
[6] = dose: 240.0 mg/kg/injection, schedule: Q01DX005 (ip), vehicle: saline with Tween-80
[7] = dose: 50.0 mg/kg/injection, schedule: Q01DX009 (ip), vehicle: Klucel (hydroxypropylcellulose) (HPC)
[8] = dose: 50.0 mg/kg/injection, schedule: Q01DX009 (ip), vehicle: saline
[9] = dose: 100.0 mg/kg/injection, schedule: Q01DX009 (ip), vehicle: saline
[10] = dose: 60.0 mg/kg/injection, schedule: Q01DX005 (ip), vehicle: Klucel (hydroxypropylcellulose) (HPC)
[11] = dose: 100.0 mg/kg/injection, schedule: Q04DX003 (ip), vehicle: Klucel (hydroxypropylcellulose) (HPC)
[12] = dose: 200.0 mg/kg/injection, schedule: Q04DX003 (ip), vehicle: Klucel (hydroxypropylcellulose) (HPC)
[13] = dose: 400.0 mg/kg/injection, schedule: Q04DX003 (ip), vehicle: Klucel (hydroxypropylcellulose) (HPC)

Structure (SMILES): C/C(=N\NC(=O)c1ccncc1)c1cccc(/C(C)=N/NC(=O)c2ccncc2)n1.CC(=O)[O-].CC(=O)[O-].[Zn+2]
- T/C (dose: 12.5 mg/kg/injection, schedule: Q01DX005 (ip), vehicle: saline with Tween-80): 110 % of control
- T/C (dose: 25.0 mg/kg/injection, schedule: Q01DX005 (ip), vehicle: saline with Tween-80): 104 % of control
- T/C [1]: 88 % of control and 93 % of control

Structure (SMILES): COc1cc2c3cc1Oc1c(O)c(OC)cc4c1[C@H](Cc1ccc(O)c(c1)Oc1ccc(cc1)C[C@H]3N(C)CC2)N(C)CC4
- T/C (dose: 37.5 mg/kg/injection, schedule: Q01DX009 (ip), vehicle: Klucel (hydroxypropylcellulose) (HPC)): 98 % of control

Structure (SMILES): Cc1nn(C(=S)S)c(C)c1N=Nc1ccccc1Cl
- T/C [1]: 111 % of control
- T/C [2]: 117 % of control
- T/C [3]: 108 % of control

Structure (SMILES): CCCCCCCCCCCC(O)CCCCC (configuration not stated)
- T/C (dose: 100.0 mg/kg/injection, schedule: Q04DX003 (ip), vehicle: other): 100 % of control
- T/C (dose: 200.0 mg/kg/injection, schedule: Q04DX003 (ip), vehicle: other): 100 % of control
- T/C (dose: 400.0 mg/kg/injection, schedule: Q04DX003 (ip), vehicle: other): 100 % of control

Structure (SMILES): CCCCC(N)C(=O)NC(CCSC)C(N)=O (configuration not stated) (H-[Nle]-Met-NH2; configuration not given here)
- T/C (dose: 50.0 mg/kg/injection, schedule: Q01DX005 (ip), vehicle: saline): 100 % of control
- T/C (dose: 100.0 mg/kg/injection, schedule: Q01DX005 (ip), vehicle: saline): 105 % of control
- T/C (dose: 200.0 mg/kg/injection, schedule: Q01DX005 (ip), vehicle: saline): 100 % of control

Structure (SMILES): Cc1cc([N+](=O)[O-])cc(C)c1OC(=O)Nc1c(Cl)cccc1Cl
- T/C (dose: 30.0 mg/kg/injection, schedule: Q01DX005 (ip), vehicle: saline with Tween-80): 101 % of control
- T/C [4]: 100 % of control and 95 % of control
- T/C [5]: 99 % of control and 100 % of control
- T/C [6]: 94 % of control

Structure (SMILES): CN(C)CCNc1ccc(NCCNCCO)c2c1C(=O)c1ccccc1C2=O
- T/C (dose: 10.0 mg/kg/injection, schedule: Q04DX002 (ip), vehicle: saline): 151 % of control
- T/C (dose: 20.0 mg/kg/injection, schedule: Q04DX002 (ip), vehicle: saline): 173 % of control
- T/C (dose: 40.0 mg/kg/injection, schedule: Q04DX002 (ip), vehicle: saline): 192 % of control
- T/C (dose: 80.0 mg/kg/injection, schedule: Q04DX002 (ip), vehicle: saline): 192 % of control

Structure (SMILES): CC1C(c2ccccc2)OCCN1C=NC#N (configuration not stated)
- T/C [7]: 102 % of control
- T/C (dose: 100.0 mg/kg/injection, schedule: Q01DX009 (ip), vehicle: Klucel (hydroxypropylcellulose) (HPC)): 103 % of control
- T/C (dose: 200.0 mg/kg/injection, schedule: Q01DX009 (ip), vehicle: Klucel (hydroxypropylcellulose) (HPC)): 103 % of control

Structure (SMILES): CCOC(=O)CC1(O)CS/C(=C(\C#N)C(=O)OCC)S1 (configuration not stated)
- T/C [1]: 102 % of control
- T/C [2]: 102 % of control
- T/C [3]: 98 % of control

Structure (SMILES): C/C(N=NC(=S)N1CCCCC1C)=C1\C=CC=CN1O (configuration not stated)
- T/C [1]: 110 % of control
- T/C [2]: 97 % of control
- T/C [3]: 104 % of control

Structure (SMILES): c1ccc(Cc2ccccc2)cc1
- T/C (dose: 50.0 mg/kg/injection, schedule: Q01DX009 (ip), vehicle: saline with Tween-80): 105 % of control
- T/C (dose: 100.0 mg/kg/injection, schedule: Q01DX009 (ip), vehicle: saline with Tween-80): 110 % of control
- T/C (dose: 200.0 mg/kg/injection, schedule: Q01DX009 (ip), vehicle: saline with Tween-80): 109 % of control

Structure (SMILES): CC(=O)NC(/C=C/c1ccc(Cl)c(Cl)c1)c1cccc(O)c(=O)c1 (configuration not stated)
- T/C (dose: 6.25 mg/kg/injection, schedule: Q01DX009 (ip), vehicle: saline with Tween-80): 100 % of control
- T/C (dose: 12.5 mg/kg/injection, schedule: Q01DX009 (ip), vehicle: saline with Tween-80): 99 % of control
- T/C (dose: 25.0 mg/kg/injection, schedule: Q01DX009 (ip), vehicle: saline with Tween-80): 113 % of control
- T/C (dose: 25.0 mg/kg/injection, schedule: Q01DX009 (ip), vehicle: saline): 119 % of control
- T/C [8]: 124 % of control
- T/C [9]: 98 % of control

Structure (SMILES): O=C1CC(=O)C(Br)=C1Br
- T/C (dose: 0.37 mg/kg/injection, schedule: Q01DX009 (ip), vehicle: saline): 109 % of control
- T/C (dose: 0.75 mg/kg/injection, schedule: Q01DX009 (ip), vehicle: saline): 100 % of control
- T/C (dose: 0.75 mg/kg/injection, schedule: Q04DX003 (ip), vehicle: saline with Tween-80): 95 % of control
- T/C (dose: 1.5 mg/kg/injection, schedule: Q01DX009 (ip), vehicle: saline): 100 % of control

Structure (SMILES): Oc1cc2cccc[n+]2c2ccccc12
- T/C (dose: 15.0 mg/kg/injection, schedule: Q01DX005 (ip), vehicle: Klucel (hydroxypropylcellulose) (HPC)): 99 % of control
- T/C (dose: 30.0 mg/kg/injection, schedule: Q01DX005 (ip), vehicle: Klucel (hydroxypropylcellulose) (HPC)): 101 % of control
- T/C [10]: 118 % of control and 97 % of control

Structure (SMILES): COc1ccc(-n2c(C)csc2=S)cc1
- T/C (dose: 50.0 mg/kg/injection, schedule: Q04DX003 (ip), vehicle: saline with Tween-80): 100 % of control
- T/C (dose: 100.0 mg/kg/injection, schedule: Q04DX003 (ip), vehicle: saline with Tween-80): 100 % of control
- T/C (dose: 200.0 mg/kg/injection, schedule: Q04DX003 (ip), vehicle: saline with Tween-80): 95 % of control

Structure (SMILES): CC(=O)OCc1cnccc1Cl
- T/C (dose: 100.0 mg/kg/injection, schedule: Q04DX002 (ip), vehicle: saline with Tween-80): 100 % of control
- T/C (dose: 200.0 mg/kg/injection, schedule: Q04DX002 (ip), vehicle: saline with Tween-80): 102 % of control
- T/C (dose: 400.0 mg/kg/injection, schedule: Q04DX002 (ip), vehicle: saline with Tween-80): 94 % of control

Structure (SMILES): COc1ccc(Cc2n[nH]c(=S)n2-c2cc(C)ccc2C)cc1OC
- T/C [4]: 102 % of control
- T/C [5]: 91 % of control
- T/C [6]: 93 % of control

Structure (SMILES): N#CC1=C2CCCCC2(O)NC1=O (configuration not stated)
- T/C (dose: 6.25 mg/kg/injection, schedule: Q01DX005 (ip), vehicle: Klucel (hydroxypropylcellulose) (HPC)): 108 % of control
- T/C (dose: 12.5 mg/kg/injection, schedule: Q01DX005 (ip), vehicle: Klucel (hydroxypropylcellulose) (HPC)): 115 % of control

Structure (SMILES): C[CH2][Pb]([CH2]C)([CH2]C)[n]1cnc2ccccc21
- T/C (dose: 0.75 mg/kg/injection, schedule: Q01DX009 (ip), vehicle: Klucel (hydroxypropylcellulose) (HPC)): 99 % of control
- T/C (dose: 1.5 mg/kg/injection, schedule: Q01DX009 (ip), vehicle: Klucel (hydroxypropylcellulose) (HPC)): 118 % of control
- T/C (dose: 3.0 mg/kg/injection, schedule: Q01DX009 (ip), vehicle: Klucel (hydroxypropylcellulose) (HPC)): 118 % of control
- T/C (dose: 3.12 mg/kg/injection, schedule: Q04DX003 (ip), vehicle: Klucel (hydroxypropylcellulose) (HPC)): 96 % of control
- T/C (dose: 6.25 mg/kg/injection, schedule: Q04DX003 (ip), vehicle: Klucel (hydroxypropylcellulose) (HPC)): 114 % of control
- T/C (dose: 12.5 mg/kg/injection, schedule: Q04DX003 (ip), vehicle: Klucel (hydroxypropylcellulose) (HPC)): 92 % of control

Structure (SMILES): O=C1OCCC12C(c1ccccc1)C1(CCOC1=O)C2c1ccccc1 (configuration not stated)
- T/C (dose: 1.87 mg/kg/injection, schedule: Q01DX005 (ip), vehicle: Klucel (hydroxypropylcellulose) (HPC)): 94 % of control
- T/C (dose: 3.75 mg/kg/injection, schedule: Q01DX005 (ip), vehicle: Klucel (hydroxypropylcellulose) (HPC)): 94 % of control
- T/C (dose: 7.5 mg/kg/injection, schedule: Q01DX005 (ip), vehicle: Klucel (hydroxypropylcellulose) (HPC)): 86 % of control
- T/C [10]: 86 % of control
- T/C (dose: 240.0 mg/kg/injection, schedule: Q01DX005 (ip), vehicle: Klucel (hydroxypropylcellulose) (HPC)): 94 % of control

Structure (SMILES): CC(OS(C)(=O)=O)C(C)OS(C)(=O)=O (configuration not stated)
- T/C [11]: 89 % of control
- T/C [12]: 116 % of control
- T/C [13]: 120 % of control

Structure (SMILES): CCCC(=O)C(CC)C(O)(C(F)(F)F)C(F)(F)F (configuration not stated)
- T/C [8]: 104 % of control
- T/C [9]: 104 % of control
- T/C (dose: 200.0 mg/kg/injection, schedule: Q01DX009 (ip), vehicle: saline): 109 % of control

Structure (SMILES): CN(C)c1ccc(/C=C/c2c(F)cnc3ccccc23)cc1
- T/C (dose: 12.5 mg/kg/injection, schedule: Q01DX009 (ip), vehicle: Klucel (hydroxypropylcellulose) (HPC)): 114 % of control
- T/C (dose: 25.0 mg/kg/injection, schedule: Q01DX009 (ip), vehicle: Klucel (hydroxypropylcellulose) (HPC)): 101 % of control
- T/C [7]: 104 % of control

Structure (SMILES): O=C1N2CCSC2=NC1(c1ccccc1)c1ccccc1
- T/C (dose: 25.0 mg/kg/injection, schedule: Q04DX003 (ip), vehicle: Klucel (hydroxypropylcellulose) (HPC)): 100 % of control
- T/C (dose: 50.0 mg/kg/injection, schedule: Q04DX003 (ip), vehicle: Klucel (hydroxypropylcellulose) (HPC)): 100 % of control
- T/C [11]: 93 % of control
- T/C [12]: 102 % of control
- T/C [13]: 100 % of control
